Measurements published in US10293004B2, “Butyrate-producing bacterium and use thereof” (KABUSHIKI KAISHA YAKULT HONSHA, priority 2014, dated 2019).

What was measured:
mouse C57BL/6J [1] = experiment: Multiple oral dose test of YIT 12355 to mouse given indigestible saccharide; type: in vivo; settings: for Total cell count: DAPI counting method; for Cell count, A. hadrus: quantitative PCR; for Occupancy: cell count of YIT 12355/total cell count ×100; for Detected count: mice with A. hadrus detected / mice in group
Method: Mice were acclimatized and raised with F2 feed (manufactured by Funabashi Farm Co., Ltd.) for 1 week and then divided into 6 groups such that the average body weight was almost equal among these groups. Then, a control diet (Table 7) was administered thereto for 1 week and replaced with purified feed containing an indigestible material, which was then administered thereto for 2 weeks. A live cell suspension of YIT 12355 was orally administered twice a week a total of 4 times using a probe. At the final day of the test, each mouse was dissected, and the cecal and colonic contents were recovered and examined for an organic acid concentration. Also, the cell count of YIT 12355 in the intestinal tract contents was measured by quantitative PCR, while change in the whole intestinal flora was examined by use of PCR-DGGE (denaturing gradient gel electrophoresis). • Animal used: mouse C57BL/6J (4 weeks old; CLEA Japan, Inc.) • Test period: 3 weeks • Indigestible saccharide used: lactitol and maltitol • Dose of indigestible saccharide: 5% (w/w) • Administered bacterial strain: YIT 12355 • Dose of bacterium: live cell dose: 3.9 to 6.9×10^8 cfu/mouse (administration of a suspension in physiological saline using a probe). Total cell count including dead cells: […] cfu/mouse • Group configuration: 6 groups (5 mice/group) At the 2nd week of administration of the test feed, each mouse was anesthetized with diethyl ether and euthanized by cervical dislocation. After abdominal section, cecal tissues and colonic tissues were excised to recover their contents. The cecal and colonic contents were diluted 10-fold with PBS and subjected to DNA extraction. DNA was extracted by the bead-phenol method from the 10-fold diluted solution of the intestinal tract contents. Specifically, 0.3 g of glass beads (diameter: 0.1 mm), 300 μL of a Tris-SDS solution (a mixed solution of 250 mL of 200 mM Tris-HCl, 80 mM EDTA, pH 9.0, and 50 mL of 10% SDS) and 500 μL of TE saturated phenol were added to 200 μL of the diluted solution of the intestinal tract contents, and the mixture was vigorously shaken for 30 seconds using FASTPREP FP120 cell disruptive equipment (power level: 5.0). After centrifugation at 15,000 rpm for 5 minutes, 400 μL of a phenol/chloroform/isoamyl alcohol (25:24:1) solution was added to 400 μL of the supernatant, and the mixture was shaken for 45 seconds using FASTPREP FP120 cell disruptive equipment (power level: 4.0). After centrifugation at 15,000 rpm for 5 minutes, 25 μL of 3 M sodium acetate (pH 5.4) and 250 μL of isopropanol were added to 250 μL of the supernatant and mixed therewith. After centrifugation at 15,000 rpm for 5 minutes, the supernatant was removed, and 500 μL of 70% ethanol was added thereto, followed by centrifugation again at 15,000 rpm for 5 minutes. The supernatant was removed, and the pellets were dried and dissolved in 1.0 mL of a TE buffer. The obtained DNA solution was diluted 10-fold with purified water to prepare a template DNA solution. For quantitative PCR, 7500 Real-Time PCR System (manufactured by Life Technologies Corp.) was used. The total volume of the reaction solution was set to 20 μL, and SYBR Premix Ex Taq II (Takara Bio Inc.) containing 1.0 μM each of primers, and the template DNA solution were mixed and then subjected to quantitative PCR. The reaction conditions involved heating at 95° C. for 2 minutes, followed by 40 repetitive cycles each involving reactions at 95° C. for 20 seconds, 55° C. for 20 seconds and 72° C. for 50 seconds, and subsequent reaction at 72° C. for 3 minutes. For subsequent Tm value analysis, after reaction at 60° C. for 1 minute, the temperature was elevated at a temperature gradient of 0.2° C./sec to 95° C. during which the fluorescence of SYBR Green I was measured to measure the dissociation temperature (Tm) of the double strand of the amplification product. […]

mouse C57BL/6J [2] = experiment: Single oral dose test of YIT 12355 to mouse given indigestible saccharide; type: in vivo
Method: Mice were acclimatized and raised with F2 feed for 1 week and then divided into 4 groups such that the average body weight was almost equal among these groups. A control diet (Table 12) was administered thereto for 1 week. Then, the control diet was administered to the control group (−/− group) and the AH/− group for 2 weeks while purified feed containing maltitol (MAL-containing diet) was administered to the −/MAL group and the AH/MAL group for 2 weeks. A live cell suspension of YIT 12355 was administered at a single dose using a probe after the administration of the control diet for 1 week. At the final day of the test, each mouse was dissected, and the cecal contents were recovered. The cecal contents were subjected to the cell count measurement of YIT 12355. • Test material: Maltitol (5% mixed feed administration) • Administered bacterial strain: YIT 12355 • Animal species: Mouse C57BL/6J (4 weeks old; CLEA Japan, Inc.) • Group configuration: 7 mice×4 groups The bacterial solution (viable count: 3.1×10^9 cfu/mL, total cell count: 1.9×10^10 cells/mL) prepared in the preceding paragraph 2) was orally administered at a single dose of 0.2 mL (viable count: 6.2×10^8 cfu/mouse, total cell count: 3.8×10^9 cells/mouse) to each mouse using a probe. To the control group and the −/MAL group, 0.2 mL of physiological saline was administered instead of the bacterial solution. […] Then, the cecal contents were recovered. The cecal contents were diluted 10-fold with PBS and subjected to DNA extraction. DNA was extracted by the bead-phenol method described in the paragraph 4)a) of Example 5 from the 10-fold diluted solution of the intestinal tract contents. The cell count of YIT 12355 was measured by quantitative PCR using the obtained DNA as a template and the bacterial species-specific primers described in the paragraph 4)a) of Example 5. After fixation of a portion of the 10-fold diluted solution of the intestinal tract contents in a 4% solution of paraformaldehyde in PBS, the total cell count was measured by the DAPI counting method. The cell count of YIT 12355 was divided by the total cell count to calculate an occupancy (%). (Occupancy of YIT 12355) (%)=(Cell count of YIT 12355/Total cell count)×100 (Expression 5)

[3] = summary in words of Table 13, single dose

With “A. hadrus (Eubacterium hadrum) YIT 12355 (NITE BP-01832)” the Total cell count (mouse C57BL/6J [1]; Cecal contents) was 10.9 ± 0.1 log10 cells/g contents, the “Cell count, A. hadrus” value (mouse C57BL/6J [1]; Cecal contents, multiple oral dose) was 7.0 ± 1.1 log10 cells/g contents and the Occupancy (mouse C57BL/6J [1]; Cecal contents) was 0.1 ± 0.1%. The Detected count (mouse C57BL/6J [1]; Cecal contents) was “(4/5)”, the Total cell count (mouse C57BL/6J [1]; Colonic contents) was 11.0 ± 0.0 log10 cells/g contents and the “Cell count, A. hadrus” value (mouse C57BL/6J [1]; Colonic contents, ND: <lower quantification limit 6.0 log10 (cells/g contents)) was 7.2 ± 1.1 log10 cells/g contents. The Occupancy (mouse C57BL/6J [1]; Colonic contents) was 0.1 ± 0.1%, the Detected count (mouse C57BL/6J [1]; Colonic contents) was “(4/5)” and the “cell count of A. hadrus in the intestine” value (mouse C57BL/6J [1]; summary in words of Table 10) was “largely changes neither”. For the same substance, the “occupancy of A. hadrus in the intestine” value (mouse C57BL/6J [1]; summary in words of Table 10) was “largely changes neither”, the Total cell count (mouse C57BL/6J [2]; cecum, DAPI counting method, single oral dose) was 10.9 ± 0.4 log10 (cells/g contents) and the “Cell count, A. hadrus YIT 12355” value (mouse C57BL/6J [2]; cecum, quantitative PCR, single oral dose) was 8.0 ± 0.3 log10 (cells/g contents). For the same substance, the Occupancy (mouse C57BL/6J [2]; cecum, ratio to total cell count, single oral dose) was 0.3%, the “cell count of YIT 12355” value (mouse C57BL/6J [2]; [3]) was “largely changes neither” and the “occupancy of YIT 12355” value (mouse C57BL/6J [2]; [3]) was “largely changes neither”.
